Test results: patent US20020137929A1, “1 - (3-heterocyclylphenyl) isothiourea, -isourea, -guanidine and -amidine herbicidal agents” (Intellectual Property Department, BASF Aktiengesellschaft, priority 1998, published 2002)

How the values were obtained:
AMBEL (Ragweed, Common) [1] = assay: Postemergence herbicidal evaluation; assay type: in vivo, Ambrosia artemisifolia; conditions: postemergence
Summary of the method: (§1)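 Rate range approx. 0.0156–0.500 kg/ha. Foliar application at 40 psi to ~2-week seedlings; surfactant 0.5% TWEEN 20 in 50/50 acetone/water. Evaluation 4–5 wk post-treatment by 0–9 visual injury score, means of replicate tests.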

[2] = system: SAGPY (Arrowhead (Pygmaea)); assay: Preemergence weed control under flooded paddy conditions; assay type: in vivo, Sagittaria pygmaea; conditions: rated 3-4 weeks after treatment
Summary of the method: (§2)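 Visual injury scored 0-9 against control three to four weeks post-treatment, greenhouse-grown. Application: acetone/water (50/50) solutions dosed directly into flood water (1.5-3 cm over silt loam, planted top 0.5 cm), roughly 0.0313 to 0.500 kg/ha active ingredient.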

ZEAMX (Corn, Field) = assay: Postemergence herbicidal evaluation; assay type: in vivo, Zea mays; conditions: postemergence
Summary of the method: as §1

[3] = system: IPOHE (Morningglory, Ivyleaf); assay: Preemergence herbicidal evaluation; assay type: in vivo, Ipomoea hederacea; conditions: rated 4-5 weeks after treatment
Summary of the method: (§3)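 Seeds were planted in potting soil in cups, then sprayed preemergence with the test compound in aqueous acetone at about 0.0156 to 0.500 kg per hectare. Cups were kept under greenhouse conditions and visually rated 4–5 weeks after treatment on a 0–9 scale against an untreated control.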

ABUTH (Velvetleaf) = assay: Postemergence herbicidal evaluation; assay type: in vivo, Abutilon theophrasti; conditions: postemergence
Summary of the method: as §1

AMBEL (Ragweed, Common) [4] = assay: Preemergence herbicidal evaluation; assay type: in vivo, Ambrosia artemisifolia; conditions: rated 4-5 weeks after treatment
Summary of the method: as §3

[5] = system: CHEAL (Lambsquarters, Common); assay: Preemergence herbicidal evaluation; assay type: in vivo, Chenopodium album; conditions: rated 4-5 weeks after treatment
Summary of the method: as §3

[6] = system: ECHORC (Watergrass (Calif.)); assay: Preemergence weed control under flooded paddy conditions; assay type: in vivo, Echinochloa oryzoides; conditions: rated 3-4 weeks after treatment
Summary of the method: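 Silt loam, seeds in top 0.5 cm; flood held 1.5-3 cm; test cpd as acetone/water 50/50 into flood water, ~0.0313-0.500 kg/ha a.i.; greenhouse 3-4 wk; visual 0-9 score vs control.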

ORYSAT (Rice, Tebonnet) [7] = assay: Postemergence herbicidal evaluation; assay type: in vivo, Oryza sativa, (L.) Tebonnet; conditions: postemergence
Summary of the method: as §1

[8] = system: GLXMAW (Soybean, Williams); assay: Preemergence herbicidal evaluation; assay type: in vivo, Glycine max, (L.) Merr. cv Williams; conditions: rated 4-5 weeks after treatment
Summary of the method: as §3

GALAP (Galium) = assay: Preemergence herbicidal evaluation; assay type: in vivo, Galium aparine; conditions: rated 4-5 weeks after treatment
Summary of the method: as §3

CYPSE (Flatsedge) = assay: Preemergence weed control under flooded paddy conditions; assay type: in vivo, Cyperus serotinus; conditions: rated 3-4 weeks after treatment
Summary of the method: as §2

ORYSAT (Rice, Tebonnet) [9] = assay: Preemergence herbicidal evaluation; assay type: in vivo, Oryza sativa, (L.) Tebonnet; conditions: rated 4-5 weeks after treatment
Summary of the method: as §3

SETVI (Foxtail, Green) = assay: Preemergence herbicidal evaluation; assay type: in vivo, Setaria viridis; conditions: rated 4-5 weeks after treatment
Summary of the method: as §3

[10] = system: TRZAWR (Wheat, Winter, cv Riband); assay: Preemergence herbicidal evaluation; assay type: in vivo, Triticum aestivum; conditions: rated 4-5 weeks after treatment
Summary of the method: as §3

CASOB (Sicklepod) = assay: Preemergence herbicidal evaluation; assay type: in vivo, Cassia obtusifolia; conditions: rated 4-5 weeks after treatment
Summary of the method: as §3

Structure (SMILES): C=CCN1C(=O)C(CC(=O)NS(=O)(=O)C(C)C)SC1=Nc1cc(-n2c(=O)cc(C(F)(F)F)n(C)c2=O)c(F)cc1Cl (stereo not shown) [Compound 118, 3-Allyl-2-{{2-chloro-5-[3,6-dihydro-3-methyl-2,6-dioxo-4-(trifluoromethyl)-1(2H)-pyrimidinyl]-4-fluorophenyl}imino}-N-(isopropylsulfonyl)-4-oxo-5-thiazolidineacetamide]
- herbicidal rating AMBEL (AMBEL (Ragweed, Common) [1]; rate 0.0158 kg/ha): 0.0
- herbicidal rating AMBEL (AMBEL (Ragweed, Common) [1]; rate 0.0315 kg/ha): 2.0
- herbicidal rating AMBEL (AMBEL (Ragweed, Common) [1]; rate 0.0630 kg/ha): 2.0
- herbicidal effect rating, SAGPY ([2]; 0.0313 kg/ha): 0.0
- herbicidal effect rating, SAGPY ([2]; 0.0625 kg/ha): 0.0
- herbicidal effect rating, SAGPY ([2]; 0.1250 kg/ha): 3.0
- herbicidal effect rating, SAGPY ([2]; 0.2500 kg/ha): 3.0
- herbicidal rating ZEAMX (ZEAMX (Corn, Field); rate 0.0158 kg/ha): 3.5
- herbicidal rating ZEAMX (ZEAMX (Corn, Field); rate 0.0315 kg/ha): 4.0
- herbicidal rating ZEAMX (ZEAMX (Corn, Field); rate 0.0630 kg/ha): 4.5
- Preemergence herbicidal rating IPOHE ([3]; rate 0.0625 kg/ha): 0.0
- Preemergence herbicidal rating IPOHE ([3]; rate 0.1250 kg/ha): 1.0
- Preemergence herbicidal rating IPOHE ([3]; rate 0.2500 kg/ha): 6.0
- herbicidal rating ABUTH (ABUTH (Velvetleaf); rate 0.0158 kg/ha): 0.0
- herbicidal rating ABUTH (ABUTH (Velvetleaf); rate 0.0315 kg/ha): 4.0
- herbicidal rating ABUTH (ABUTH (Velvetleaf); rate 0.0630 kg/ha): 9.0
- Preemergence herbicidal rating AMBEL (AMBEL (Ragweed, Common) [4]; rate 0.0625 kg/ha): 0.0
- Preemergence herbicidal rating AMBEL (AMBEL (Ragweed, Common) [4]; rate 0.1250 kg/ha): 0.0
- Preemergence herbicidal rating AMBEL (AMBEL (Ragweed, Common) [4]; rate 0.2500 kg/ha): 6.0
- Preemergence herbicidal rating CHEAL ([5]; rate 0.0625 kg/ha): 6.0
- Preemergence herbicidal rating CHEAL ([5]; rate 0.1250 kg/ha): 9.0
- Preemergence herbicidal rating CHEAL ([5]; rate 0.2500 kg/ha): 9.0
- herbicidal effect rating, ECHORC ([6]; 0.0313 kg/ha): 0.0
- herbicidal effect rating, ECHORC ([6]; 0.0625 kg/ha): 0.0
- herbicidal effect rating, ECHORC ([6]; 0.1250 kg/ha): 4.0
- herbicidal effect rating, ECHORC ([6]; 0.2500 kg/ha): 6.0
- herbicidal rating ORYSAT (ORYSAT (Rice, Tebonnet) [7]; rate 0.0158 kg/ha): 2.0
- herbicidal rating ORYSAT (ORYSAT (Rice, Tebonnet) [7]; rate 0.0315 kg/ha): 2.0
- herbicidal rating ORYSAT (ORYSAT (Rice, Tebonnet) [7]; rate 0.0630 kg/ha): 2.0
- Preemergence herbicidal rating GLXMAW ([8]; rate 0.0625 kg/ha): 1.0
- Preemergence herbicidal rating GLXMAW ([8]; rate 0.1250 kg/ha): 0.0
- Preemergence herbicidal rating GLXMAW ([8]; rate 0.2500 kg/ha): 3.0
- Preemergence herbicidal rating GALAP (GALAP (Galium); rate 0.0625 kg/ha): 1.0
- Preemergence herbicidal rating GALAP (GALAP (Galium); rate 0.1250 kg/ha): 6.0
- Preemergence herbicidal rating GALAP (GALAP (Galium); rate 0.2500 kg/ha): 7.0
- herbicidal effect rating, CYPSE (CYPSE (Flatsedge); 0.0313 kg/ha): 0.0
- herbicidal effect rating, CYPSE (CYPSE (Flatsedge); 0.0625 kg/ha): 0.0
- herbicidal effect rating, CYPSE (CYPSE (Flatsedge); 0.1250 kg/ha): 0.0
- herbicidal effect rating, CYPSE (CYPSE (Flatsedge); 0.2500 kg/ha): 0.0
- Preemergence herbicidal rating ORYSAT (ORYSAT (Rice, Tebonnet) [9]; rate 0.0625 kg/ha): 0.0
- Preemergence herbicidal rating ORYSAT (ORYSAT (Rice, Tebonnet) [9]; rate 0.1250 kg/ha): 0.0
- Preemergence herbicidal rating ORYSAT (ORYSAT (Rice, Tebonnet) [9]; rate 0.2500 kg/ha): 0.0
- Preemergence herbicidal rating SETVI (SETVI (Foxtail, Green); rate 0.0625 kg/ha): 0.0
- Preemergence herbicidal rating SETVI (SETVI (Foxtail, Green); rate 0.1250 kg/ha): 0.0
- Preemergence herbicidal rating SETVI (SETVI (Foxtail, Green); rate 0.2500 kg/ha): 2.0
- Preemergence herbicidal rating TRZAWR ([10]; rate 0.0625 kg/ha): 0.0
- Preemergence herbicidal rating TRZAWR ([10]; rate 0.1250 kg/ha): 0.0
- Preemergence herbicidal rating TRZAWR ([10]; rate 0.2500 kg/ha): 0.0
- Preemergence herbicidal rating CASOB (CASOB (Sicklepod); rate 0.0625 kg/ha): 0.0
- Preemergence herbicidal rating CASOB (CASOB (Sicklepod); rate 0.2500 kg/ha): 4.0

Structure (SMILES): CC1SC(=Nc2cc(N3C(=O)C4=C(CCCC4)C3=O)c(F)cc2Cl)N(C)C1=O (stereo not shown) [Compound 4]
- AMBEL herbicidal rating (AMBEL (Ragweed, Common) [1]; rate 0.0313 kg/ha): 0.0
- AMBEL herbicidal rating (AMBEL (Ragweed, Common) [1]; rate 0.0625 kg/ha): 0.0
- AMBEL herbicidal rating (AMBEL (Ragweed, Common) [1]; rate 0.1250 kg/ha): 2.0
- AMBEL herbicidal rating (AMBEL (Ragweed, Common) [1]; rate 0.2500 kg/ha): 6.0
- AMBEL herbicidal rating (AMBEL (Ragweed, Common) [1]; rate 0.5000 kg/ha): 6.0
- Herbicidal rating SAGPY ([2]; 0.0313 kg/ha): 0.0
- Herbicidal rating SAGPY ([2]; 0.0625 kg/ha): 0.0
- Herbicidal rating SAGPY ([2]; 0.1250 kg/ha): 0.0
- Herbicidal rating SAGPY ([2]; 0.2500 kg/ha): 0.0
- Herbicidal rating SAGPY ([2]; 0.5000 kg/ha): 0.0
- ZEAMX herbicidal rating (ZEAMX (Corn, Field); rate 0.0313 kg/ha): 3.0
- ZEAMX herbicidal rating (ZEAMX (Corn, Field); rate 0.0625 kg/ha): 3.5
- ZEAMX herbicidal rating (ZEAMX (Corn, Field); rate 0.1250 kg/ha): 4.0
- ZEAMX herbicidal rating (ZEAMX (Corn, Field); rate 0.2500 kg/ha): 4.0
- ZEAMX herbicidal rating (ZEAMX (Corn, Field); rate 0.5000 kg/ha): 4.0
- ABUTH herbicidal rating (ABUTH (Velvetleaf); rate 0.0313 kg/ha): 2.0
- ABUTH herbicidal rating (ABUTH (Velvetleaf); rate 0.0625 kg/ha): 4.0
- ABUTH herbicidal rating (ABUTH (Velvetleaf); rate 0.1250 kg/ha): 9.0
- ABUTH herbicidal rating (ABUTH (Velvetleaf); rate 0.2500 kg/ha): 9.0
- ABUTH herbicidal rating (ABUTH (Velvetleaf); rate 0.5000 kg/ha): 9.0
- AMBEL preemergence herbicidal rating (AMBEL (Ragweed, Common) [4]; rate 0.1250 kg/ha): 0.0
- AMBEL preemergence herbicidal rating (AMBEL (Ragweed, Common) [4]; rate 0.2500 kg/ha): 1.0
- AMBEL preemergence herbicidal rating (AMBEL (Ragweed, Common) [4]; rate 0.5000 kg/ha): 4.0
- CHEAL preemergence herbicidal rating ([5]; rate 0.1250 kg/ha): 0.0
- CHEAL preemergence herbicidal rating ([5]; rate 0.2500 kg/ha): 2.0
- CHEAL preemergence herbicidal rating ([5]; rate 0.5000 kg/ha): 9.0
- Herbicidal rating ECHORC ([6]; 0.0313 kg/ha): 2.0
- Herbicidal rating ECHORC ([6]; 0.0625 kg/ha): 4.0
- Herbicidal rating ECHORC ([6]; 0.1250 kg/ha): 7.0
- Herbicidal rating ECHORC ([6]; 0.2500 kg/ha): 8.0
- Herbicidal rating ECHORC ([6]; 0.5000 kg/ha): 9.0
- ORYSAT herbicidal rating (ORYSAT (Rice, Tebonnet) [7]; rate 0.0313 kg/ha): 1.0
- ORYSAT herbicidal rating (ORYSAT (Rice, Tebonnet) [7]; rate 0.0625 kg/ha): 1.0
- ORYSAT herbicidal rating (ORYSAT (Rice, Tebonnet) [7]; rate 0.1250 kg/ha): 2.5
- ORYSAT herbicidal rating (ORYSAT (Rice, Tebonnet) [7]; rate 0.2500 kg/ha): 1.5
- ORYSAT herbicidal rating (ORYSAT (Rice, Tebonnet) [7]; rate 0.5000 kg/ha): 3.0
- Herbicidal rating CYPSE (CYPSE (Flatsedge); 0.0313 kg/ha): 0.0
- Herbicidal rating CYPSE (CYPSE (Flatsedge); 0.0625 kg/ha): 0.0
- Herbicidal rating CYPSE (CYPSE (Flatsedge); 0.1250 kg/ha): 0.0
- Herbicidal rating CYPSE (CYPSE (Flatsedge); 0.2500 kg/ha): 0.0
- Herbicidal rating CYPSE (CYPSE (Flatsedge); 0.5000 kg/ha): 0.0
- ORYSAT preemergence herbicidal rating (ORYSAT (Rice, Tebonnet) [9]; rate 0.1250 kg/ha): 0.0
- ORYSAT preemergence herbicidal rating (ORYSAT (Rice, Tebonnet) [9]; rate 0.2500 kg/ha): 2.0
- ORYSAT preemergence herbicidal rating (ORYSAT (Rice, Tebonnet) [9]; rate 0.5000 kg/ha): 4.0
- SETVI preemergence herbicidal rating (SETVI (Foxtail, Green); rate 0.1250 kg/ha): 2.0
- SETVI preemergence herbicidal rating (SETVI (Foxtail, Green); rate 0.2500 kg/ha): 4.0
- SETVI preemergence herbicidal rating (SETVI (Foxtail, Green); rate 0.5000 kg/ha): 9.0
- TRZAWR preemergence herbicidal rating ([10]; rate 0.1250 kg/ha): 2.0
- TRZAWR preemergence herbicidal rating ([10]; rate 0.2500 kg/ha): 3.0
- TRZAWR preemergence herbicidal rating ([10]; rate 0.5000 kg/ha): 3.0
- CASOB preemergence herbicidal rating (CASOB (Sicklepod); rate 0.1250 kg/ha): 0.0
- CASOB preemergence herbicidal rating (CASOB (Sicklepod); rate 0.2500 kg/ha): 2.0
- CASOB preemergence herbicidal rating (CASOB (Sicklepod); rate 0.5000 kg/ha): 7.0
